Measured values published in PMC5923399 (Marine Drugs, 2018).
Where two headings read alike, the source gives them in different places. Where a SMILES comes first, the peptide text is derived from it. Bridges are numbered along the chain shown (N, C = ends).

Assays:
[1] = biological target: T1, α9α10 nAChR (Rattus norvegicus, UniProt P43144+Q9JLB5); conditions: read-out: IC50 α9α10; cited from earlier work
T1 construct: expressed in transfected cells; host or cells: Xenopus oocytes (cRNA injection)

[2] = biological target: T2, rat α3β2 nAChRs (Rattus norvegicus, UniProt P04757+P12390); experiment: cell-based
T2 construct: expressed in transfected cells; host or cells: Xenopus oocytes (cRNA injection)

[3] = biological target: T3, GABABR-coupled Cav2.2 (Homo sapiens, UniProt O75899+Q9UBS5); experiment: cell-based; design: species or system human GABABR and rat Cav2.2
T3 construct: expressed in transfected cells; host or cells: HEK293T cells, transient transfection; GABAB subunit plasmids from David J. Adams, University of Wollongong

[4] = biological target: T4, α2β4 nAChR (Rattus norvegicus, UniProt P12389+P12392); experiment: cell-based
T4 construct: expressed in transfected cells; host or cells: Xenopus oocytes (cRNA injection)

[5] = biological target: T5, α2β2 nAChR (Rattus norvegicus, UniProt P12389+P12390); experiment: cell-based
T5 construct: expressed in transfected cells; host or cells: Xenopus oocytes (cRNA injection)

[6] = biological target: T1, α9α10 nAChR; experiment: cell-based
[7] = biological target: T6, α3β4 nAChR (Rattus norvegicus, UniProt P04757+P12392); experiment: cell-based
T6 construct: expressed in transfected cells; host or cells: Xenopus oocytes (cRNA injection)

[8] = biological target: T7, α4β2 nAChR (Rattus norvegicus, UniProt P09483+P12390); experiment: cell-based
T7 construct: expressed in transfected cells; host or cells: Xenopus oocytes (cRNA injection)

[9] = biological target: T8, α7 nAChR (Rattus norvegicus, UniProt Q05941); experiment: cell-based
T8 construct: expressed in transfected cells; host or cells: Xenopus oocytes (cRNA injection)

[10] = biological target: T9, α4β4 nAChR (Rattus norvegicus, UniProt P09483+P12392); experiment: cell-based
T9 construct: expressed in transfected cells; host or cells: Xenopus oocytes (cRNA injection)

T3 sequence (Q9UBS5 15-961 limits assumed): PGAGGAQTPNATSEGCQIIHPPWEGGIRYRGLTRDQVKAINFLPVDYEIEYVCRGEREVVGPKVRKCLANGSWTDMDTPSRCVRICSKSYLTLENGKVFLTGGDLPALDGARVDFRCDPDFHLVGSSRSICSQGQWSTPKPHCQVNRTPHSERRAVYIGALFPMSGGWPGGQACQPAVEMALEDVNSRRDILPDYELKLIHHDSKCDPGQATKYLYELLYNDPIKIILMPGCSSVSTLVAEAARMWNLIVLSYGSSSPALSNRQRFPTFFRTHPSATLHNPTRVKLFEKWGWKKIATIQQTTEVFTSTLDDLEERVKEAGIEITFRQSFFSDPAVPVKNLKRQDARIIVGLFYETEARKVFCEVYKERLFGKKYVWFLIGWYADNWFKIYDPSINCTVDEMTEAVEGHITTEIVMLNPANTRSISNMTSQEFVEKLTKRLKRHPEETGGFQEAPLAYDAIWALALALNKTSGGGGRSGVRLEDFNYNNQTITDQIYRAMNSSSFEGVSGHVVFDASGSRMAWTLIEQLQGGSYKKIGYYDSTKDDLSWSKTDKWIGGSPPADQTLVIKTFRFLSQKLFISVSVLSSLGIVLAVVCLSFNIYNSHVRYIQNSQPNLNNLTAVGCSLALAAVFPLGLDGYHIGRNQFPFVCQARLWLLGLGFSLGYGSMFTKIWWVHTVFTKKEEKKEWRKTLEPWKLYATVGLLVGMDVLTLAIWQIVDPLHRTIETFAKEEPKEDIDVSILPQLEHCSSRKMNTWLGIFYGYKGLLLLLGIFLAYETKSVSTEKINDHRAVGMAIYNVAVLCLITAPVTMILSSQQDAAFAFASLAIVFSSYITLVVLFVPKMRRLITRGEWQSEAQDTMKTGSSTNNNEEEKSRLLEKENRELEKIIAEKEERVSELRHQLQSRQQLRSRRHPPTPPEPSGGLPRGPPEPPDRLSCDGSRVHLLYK
T3 sequence (O75899 42-941): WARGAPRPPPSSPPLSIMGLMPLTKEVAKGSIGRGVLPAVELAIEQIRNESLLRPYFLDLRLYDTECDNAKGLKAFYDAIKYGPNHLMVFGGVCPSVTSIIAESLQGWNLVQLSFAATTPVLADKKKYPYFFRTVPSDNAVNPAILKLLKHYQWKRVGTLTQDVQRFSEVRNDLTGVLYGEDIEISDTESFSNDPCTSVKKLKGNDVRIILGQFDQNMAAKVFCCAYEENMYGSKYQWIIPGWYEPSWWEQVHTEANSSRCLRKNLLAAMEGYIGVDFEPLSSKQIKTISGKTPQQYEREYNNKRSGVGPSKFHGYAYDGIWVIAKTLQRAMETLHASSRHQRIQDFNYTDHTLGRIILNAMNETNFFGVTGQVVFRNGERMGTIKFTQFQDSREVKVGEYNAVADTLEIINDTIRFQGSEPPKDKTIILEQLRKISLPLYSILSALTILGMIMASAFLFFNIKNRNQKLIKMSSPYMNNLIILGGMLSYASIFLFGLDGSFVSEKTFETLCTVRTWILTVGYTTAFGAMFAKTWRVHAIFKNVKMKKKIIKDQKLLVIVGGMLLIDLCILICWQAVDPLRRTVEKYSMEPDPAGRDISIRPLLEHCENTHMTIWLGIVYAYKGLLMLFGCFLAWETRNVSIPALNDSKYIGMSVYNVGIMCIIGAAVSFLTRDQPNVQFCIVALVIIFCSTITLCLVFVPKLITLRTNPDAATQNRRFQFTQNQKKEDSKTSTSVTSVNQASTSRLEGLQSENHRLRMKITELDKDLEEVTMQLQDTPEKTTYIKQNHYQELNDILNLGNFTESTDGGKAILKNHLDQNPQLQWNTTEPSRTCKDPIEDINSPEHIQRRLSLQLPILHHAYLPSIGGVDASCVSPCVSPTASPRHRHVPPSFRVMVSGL
T2 sequence (P04757 26-499 limits assumed): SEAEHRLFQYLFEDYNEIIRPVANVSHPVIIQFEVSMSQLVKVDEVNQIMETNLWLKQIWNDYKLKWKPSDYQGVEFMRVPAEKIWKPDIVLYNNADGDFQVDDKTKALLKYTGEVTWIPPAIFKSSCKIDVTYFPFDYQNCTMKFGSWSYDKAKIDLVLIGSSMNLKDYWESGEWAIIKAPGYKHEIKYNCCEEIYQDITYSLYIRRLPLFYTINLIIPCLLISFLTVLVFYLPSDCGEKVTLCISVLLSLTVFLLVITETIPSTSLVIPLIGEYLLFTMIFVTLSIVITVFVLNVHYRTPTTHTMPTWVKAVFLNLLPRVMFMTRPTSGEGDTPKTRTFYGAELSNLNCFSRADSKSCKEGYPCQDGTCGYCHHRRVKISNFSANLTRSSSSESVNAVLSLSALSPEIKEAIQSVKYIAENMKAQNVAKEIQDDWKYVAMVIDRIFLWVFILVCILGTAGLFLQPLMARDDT
T2 sequence (P12390 25-500 limits assumed): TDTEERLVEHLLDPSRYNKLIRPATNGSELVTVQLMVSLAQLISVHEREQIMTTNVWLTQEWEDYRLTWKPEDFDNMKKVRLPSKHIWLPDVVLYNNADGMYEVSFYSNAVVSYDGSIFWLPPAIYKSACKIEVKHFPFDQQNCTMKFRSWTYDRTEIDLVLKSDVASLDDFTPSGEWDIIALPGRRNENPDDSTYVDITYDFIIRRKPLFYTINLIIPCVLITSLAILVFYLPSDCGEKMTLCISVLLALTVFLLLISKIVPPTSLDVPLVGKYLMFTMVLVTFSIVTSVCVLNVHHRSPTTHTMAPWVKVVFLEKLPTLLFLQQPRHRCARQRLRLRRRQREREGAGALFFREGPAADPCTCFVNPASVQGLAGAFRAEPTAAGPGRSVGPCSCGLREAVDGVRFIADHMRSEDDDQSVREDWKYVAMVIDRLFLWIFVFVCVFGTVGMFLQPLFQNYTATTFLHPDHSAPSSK
T1 sequence (P43144 26-479 limits assumed): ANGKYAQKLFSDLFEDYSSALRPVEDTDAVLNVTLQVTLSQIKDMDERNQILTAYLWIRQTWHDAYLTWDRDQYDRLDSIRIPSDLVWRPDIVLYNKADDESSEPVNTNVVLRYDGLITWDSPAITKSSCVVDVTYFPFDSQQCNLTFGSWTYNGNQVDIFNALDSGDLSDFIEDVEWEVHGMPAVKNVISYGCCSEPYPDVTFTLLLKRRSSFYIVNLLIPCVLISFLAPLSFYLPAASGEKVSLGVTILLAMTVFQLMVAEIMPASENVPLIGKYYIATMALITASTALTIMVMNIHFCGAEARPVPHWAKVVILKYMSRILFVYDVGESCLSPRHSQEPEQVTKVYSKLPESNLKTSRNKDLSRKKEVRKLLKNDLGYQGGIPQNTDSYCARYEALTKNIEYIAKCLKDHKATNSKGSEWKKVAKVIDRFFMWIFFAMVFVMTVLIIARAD
T1 sequence (Q9JLB5 25-447 limits assumed): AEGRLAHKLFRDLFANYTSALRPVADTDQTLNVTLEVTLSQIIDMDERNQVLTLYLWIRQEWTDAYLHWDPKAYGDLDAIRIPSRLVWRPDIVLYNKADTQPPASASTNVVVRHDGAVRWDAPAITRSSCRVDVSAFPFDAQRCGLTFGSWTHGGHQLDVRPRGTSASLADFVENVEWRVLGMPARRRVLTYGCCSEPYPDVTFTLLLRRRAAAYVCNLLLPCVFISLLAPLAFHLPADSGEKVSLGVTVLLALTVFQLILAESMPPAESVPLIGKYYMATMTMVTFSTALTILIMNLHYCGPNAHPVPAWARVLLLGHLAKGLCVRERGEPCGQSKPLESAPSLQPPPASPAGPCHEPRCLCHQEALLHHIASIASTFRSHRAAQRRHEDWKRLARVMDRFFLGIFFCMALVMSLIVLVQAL
T8 sequence (Q05941 23-502 limits assumed): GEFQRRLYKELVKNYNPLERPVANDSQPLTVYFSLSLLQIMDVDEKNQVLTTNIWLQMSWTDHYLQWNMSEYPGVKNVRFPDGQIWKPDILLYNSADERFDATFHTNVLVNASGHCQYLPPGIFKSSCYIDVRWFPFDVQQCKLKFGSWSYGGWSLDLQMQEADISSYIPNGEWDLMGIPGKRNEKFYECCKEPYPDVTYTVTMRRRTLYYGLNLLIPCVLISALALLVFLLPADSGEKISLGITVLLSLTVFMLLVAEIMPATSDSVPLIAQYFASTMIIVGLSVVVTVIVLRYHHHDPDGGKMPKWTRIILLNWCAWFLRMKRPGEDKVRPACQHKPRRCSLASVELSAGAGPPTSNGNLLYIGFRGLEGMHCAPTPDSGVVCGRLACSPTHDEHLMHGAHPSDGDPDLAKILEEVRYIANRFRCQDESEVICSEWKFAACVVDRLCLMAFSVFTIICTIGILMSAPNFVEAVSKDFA
T6 sequence (P04757 26-499 limits assumed): as the sequence (P04757 26-499 limits assumed) above
T6 sequence (P12392 21-495 limits assumed): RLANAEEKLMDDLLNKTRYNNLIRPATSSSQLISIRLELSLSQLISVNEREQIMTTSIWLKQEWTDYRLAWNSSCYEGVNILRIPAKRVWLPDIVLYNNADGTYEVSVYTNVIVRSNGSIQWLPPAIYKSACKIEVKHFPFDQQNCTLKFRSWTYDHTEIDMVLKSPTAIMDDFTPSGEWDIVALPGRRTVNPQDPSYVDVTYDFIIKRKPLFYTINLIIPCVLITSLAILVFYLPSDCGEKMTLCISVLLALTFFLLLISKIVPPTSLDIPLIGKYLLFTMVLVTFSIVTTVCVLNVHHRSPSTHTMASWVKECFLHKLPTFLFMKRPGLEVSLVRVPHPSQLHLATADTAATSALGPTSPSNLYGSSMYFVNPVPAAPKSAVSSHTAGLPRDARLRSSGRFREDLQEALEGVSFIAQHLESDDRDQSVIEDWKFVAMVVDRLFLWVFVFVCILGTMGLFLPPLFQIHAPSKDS

SMILES | IC50 [1] [µM] | IC50 [2] [µM] | IC50 [3] [µM] | IC50 [4] [µM] | selectivity index (SI) [2] | IC50 [5] [µM] | IC50 [6] [µM] | inhibition at 10 µM ([3]; HEK-293T, read-out: inhibition of peak current amplitude, SEM) [%] | IC50 [7] [µM] | IC50 [8] [µM] | IC50 [9] [µM] | IC50 [10] [µM]
CC[C@H](C)[C@@H]1NC(=O)[C@H](Cc2cnc[nH]2)NC(=O)[C@@H]2CCCN2C(=O)[C@H](CC(N)=O)NC(=O)[C@H](CC(N)=O)NC(=O)[C@H](C(C)C)NC(=O)[C@H](CC(N)=O)NC(=O)[C@@H]2CSSC[C@H](NC(=O)CN)C(=O)N[C@@H](CSSC[C@@H](C(N)=O)NC1=O)C(=O)N[C@@H](CO)C(=O)N[C@@H](Cc1cnc[nH]1)C(=O)N1CCC[C@H]1C(=O)N[C@@H](C)C(=O)N2 [RegIIA, reference compound] (H-GCCSHPACNVNNPHIC-NH2; disulfide 2-8, 3-16) | > 1 | 0.0345 |  |  |  |  |  |  |  |  |  | 
CC[C@H](C)[C@@H]1NC(=O)[C@H](CCC(=O)O)NC(=O)[C@@H]2CCCN2C(=O)[C@H](Cc2cnc[nH]2)NC(=O)[C@H](CC(=O)O)NC(=O)[C@H](Cc2ccc(O)cc2)NC(=O)[C@H](CC(N)=O)NC(=O)[C@@H]2CSSC[C@H](NC(=O)CN)C(=O)N[C@@H](CSSC[C@@H](C(N)=O)NC1=O)C(=O)N[C@@H](CO)C(=O)N[C@@H](CC(=O)O)C(=O)N1CCC[C@H]1C(=O)N[C@@H](CCCNC(=N)N)C(=O)N2 [Vc1.1, reference compound] |  |  | 0.0024 |  |  |  |  |  |  |  |  | 
C[C@@H]1NC(=O)[C@@H]2CCCN2C(=O)[C@H](Cc2c[nH]cn2)NC(=O)[C@H](CO)NC(=O)[C@@H]2CSSC[C@@H](C(N)=O)NC(=O)[C@H](Cc3ccccc3)NC(=O)[C@H](Cc3ccc(O)cc3)NC(=O)[C@@H]3CCCN3C(=O)[C@H](CC(N)=O)NC(=O)[C@H](CC(N)=O)NC(=O)CNC(=O)[C@H](CO)NC(=O)[C@H](CSSC[C@H](NC(=O)CN)C(=O)N2)NC1=O [Lt1.3-II] (H-GCCSHPACSGNNPYFC-NH2; disulfide 2-8, 3-16) |  | 0.0448 | > 10 | > 10 | > 200 | > 10 | > 10 | 3.2 ± 1.8 | > 10 | > 10 | > 10 | > 10
